According to patent publication US8445474B2 (Knopp Neurosciences, Inc., priority 2006, dated 2013):

What was measured:
[1] = target: human cloned dopamine receptor D2L (Homo sapiens, UniProt P14416); details: R(+) versus S(−)
Description: (§1) Eight concentrations were tested: 50 nM, 100 nM, 500 nM, 1 μM, 5 μM, 10 μM, 50 μM, 100 μM. These concentrations were tested in either CHO (Chinese hamster ovary) or HEK293 (human embryonic kidney) cell lines expressing human cloned dopamine receptors (D1, D2S, D2L, D3, D4, D5). The radio-ligand in each case was either [^3H] spiperone or [^3H] SCH23390 (a classic D1 dopamine receptor antagonist R-(+)-7-Chloro-8-hydroxy-3-methyl-1-phenyl-2,3,4,5-tetrahydro-1H-3-benzazepine hydrochloride), both antagonists at 0.3 nM. Incubation was for 60 minutes, and data were collected for 2 repeats using scintillation counting.

[2] = target: human cloned dopamine receptor D2S (Homo sapiens, UniProt P14416); details: R(+) versus S(−)
Sequence of human cloned dopamine receptor D2S (P14416 1-414 isoform P14416-2): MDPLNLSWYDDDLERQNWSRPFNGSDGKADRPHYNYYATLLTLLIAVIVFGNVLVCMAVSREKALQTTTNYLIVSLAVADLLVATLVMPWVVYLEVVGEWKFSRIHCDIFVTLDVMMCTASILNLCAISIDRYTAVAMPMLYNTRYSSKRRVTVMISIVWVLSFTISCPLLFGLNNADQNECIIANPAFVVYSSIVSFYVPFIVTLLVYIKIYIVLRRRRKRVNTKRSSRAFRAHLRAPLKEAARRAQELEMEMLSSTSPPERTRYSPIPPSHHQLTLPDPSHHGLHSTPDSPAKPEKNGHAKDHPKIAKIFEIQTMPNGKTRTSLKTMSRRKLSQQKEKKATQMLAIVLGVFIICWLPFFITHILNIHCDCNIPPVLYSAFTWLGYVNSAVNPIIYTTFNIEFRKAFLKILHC
Description: as §1

[3] = target: human cloned dopamine receptor D3 (Homo sapiens, UniProt P35462); assay: biochemical
Sequence of human cloned dopamine receptor D3 (P35462 whole entry): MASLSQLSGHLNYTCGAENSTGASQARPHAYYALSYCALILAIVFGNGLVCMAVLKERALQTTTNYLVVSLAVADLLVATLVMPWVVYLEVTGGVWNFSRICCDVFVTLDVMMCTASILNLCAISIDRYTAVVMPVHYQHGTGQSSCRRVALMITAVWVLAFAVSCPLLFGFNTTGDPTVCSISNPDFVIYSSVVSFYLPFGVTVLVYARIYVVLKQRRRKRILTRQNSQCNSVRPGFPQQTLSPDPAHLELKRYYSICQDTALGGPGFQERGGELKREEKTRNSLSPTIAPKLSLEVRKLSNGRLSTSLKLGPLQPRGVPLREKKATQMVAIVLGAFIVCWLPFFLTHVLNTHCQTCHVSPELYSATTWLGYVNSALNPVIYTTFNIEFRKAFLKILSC
Description: as §1

[4] = target: human cloned dopamine receptor D5 (Homo sapiens, UniProt P21918); assay: biochemical
Sequence of human cloned dopamine receptor D5 (P21918 whole entry): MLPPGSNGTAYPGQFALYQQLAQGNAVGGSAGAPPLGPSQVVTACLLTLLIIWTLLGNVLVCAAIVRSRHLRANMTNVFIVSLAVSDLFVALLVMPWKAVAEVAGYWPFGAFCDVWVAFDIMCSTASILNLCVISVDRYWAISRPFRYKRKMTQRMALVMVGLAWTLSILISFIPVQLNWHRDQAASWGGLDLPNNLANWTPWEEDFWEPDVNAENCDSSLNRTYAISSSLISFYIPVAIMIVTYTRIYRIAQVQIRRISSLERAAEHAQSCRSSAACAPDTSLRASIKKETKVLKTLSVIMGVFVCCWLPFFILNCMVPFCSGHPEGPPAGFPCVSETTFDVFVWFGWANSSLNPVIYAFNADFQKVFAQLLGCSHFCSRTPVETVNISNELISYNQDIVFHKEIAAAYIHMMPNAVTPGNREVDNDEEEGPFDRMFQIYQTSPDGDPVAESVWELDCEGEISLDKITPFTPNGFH
Description: as §1

[5] = Dissolution of exploratory combination capsules in simulated gastric fluid (SGF), chiral HPLC; format: physicochemical; details: for Average Concentrations of the enantiomer, Experiments SGF (1) and SGF (2) / Concentration of the enantiomer in SGF (1) Vessel / Concentration of the enantiomer in SGF (2) Vessel: combination capsule in 10 mL SGF pH 1.2
Description: Drug Formulation. […] Normal phase, chiral HPLC was used for monitoring the release of R(+) pramipexole and S(−) pramipexole in simulated gastric fluid (SGF).
Dissolution Study. SGF (pH=1.2) was prepared by diluting 1 g of sodium chloride and 7 mL of concentrated HCl to 1 L with HPLC grade water. The dissolution experiment was run as follows: an exploratory combination capsule was placed in 10 mL of SGF and shaken under ambient conditions at 600 RPM for 60 minutes. Aliquots of 100 μL were pulled from the same sample vessel at various time points. The 100 μL samples of SGF solution were evaporated using a nitrogen bleed and heat and the residues were dissolved in the HPLC diluent and filtered through 0.45 μm syringe filters. […] This experiment was performed in duplicate (experiment numbers SGF (1) (see Table 4) and SGF (2) (see Table 5)) and the results are also provided in average values (see Table 6). The tables and figures below summarize the results from these experiments.

dopamine receptors = details: present data
[6] = 4320 minutes, stored benchtop in clear vial
[7] = non-naïve male beagle dogs, single oral dose

Sequence of human cloned dopamine receptor D2L (P14416 whole entry): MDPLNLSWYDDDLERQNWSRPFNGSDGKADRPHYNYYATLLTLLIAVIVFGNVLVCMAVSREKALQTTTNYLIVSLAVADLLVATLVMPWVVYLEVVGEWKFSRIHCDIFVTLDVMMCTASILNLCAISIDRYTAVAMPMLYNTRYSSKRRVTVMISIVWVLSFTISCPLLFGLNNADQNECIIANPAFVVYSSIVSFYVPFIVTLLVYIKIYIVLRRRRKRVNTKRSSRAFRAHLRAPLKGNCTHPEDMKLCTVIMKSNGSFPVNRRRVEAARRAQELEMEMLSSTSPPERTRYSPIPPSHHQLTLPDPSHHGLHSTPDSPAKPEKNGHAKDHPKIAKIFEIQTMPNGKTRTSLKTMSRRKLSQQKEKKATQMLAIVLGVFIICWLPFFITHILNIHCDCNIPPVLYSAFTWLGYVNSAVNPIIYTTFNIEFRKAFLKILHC
Description for male beagle dogs: Doses were administered orally by gavage and clinical observations were taken continuously following dosing: hourly for the first four hours, and then twice daily cage-side observations for the duration of the inter-dose or post-dose interval. Observations were made of clinical signs, mortality, injury and availability of food and water. Animals were fasted for 24 hr prior to dosing. Dogs in each group were exposed to only one drug, or the combination; each dose was administered only once, with a subsequent dose administered after a recovery period of 4 days.

## CCCN[C@H]1CCc2nc(N)sc2C1 (single isomer, unassigned) [R(+) pramipexole]
[1]
  lower affinity for the D2L receptor subtype than the S(−) enantiomer: > 10,000 fold
[2]
  lower affinity for the D2S receptor subtype than the S(−) enantiomer: > 10,000 fold
[3]
  IC50: 12 µM
  Ki: 2700 nM
[3]; R(+) versus S(−)
  less affinity for the D3 receptor subtype than the S(−) enantiomer: about 5,000 fold
[4]
  IC50: > 100 µM
  Ki: > 100 µM
[5]; 3 minutes
  Average Concentrations of the enantiomer, Experiments SGF (1) and SGF (2): 0 mg/mL
  Concentration of the enantiomer in SGF (1) Vessel: 0 mg/mL
  Concentration of the enantiomer in SGF (2) Vessel: 0 mg/mL
[5]; 4 minutes
  Average Concentrations of the enantiomer, Experiments SGF (1) and SGF (2): 0.002035 mg/mL
  Concentration of the enantiomer in SGF (1) Vessel: 0.001824 mg/mL
  Concentration of the enantiomer in SGF (2) Vessel: 0.002245 mg/mL
[5]; 6 minutes
  Average Concentrations of the enantiomer, Experiments SGF (1) and SGF (2): 0.06814 mg/mL
  Concentration of the enantiomer in SGF (1) Vessel: 0.04259 mg/mL
  Concentration of the enantiomer in SGF (2) Vessel: 0.0937 mg/mL
[5]; 8 minutes
  Average Concentrations of the enantiomer, Experiments SGF (1) and SGF (2): 7.346 mg/mL
  Concentration of the enantiomer in SGF (1) Vessel: 6.441 mg/mL
  Concentration of the enantiomer in SGF (2) Vessel: 8.250 mg/mL
[5]; 10 minutes
  Average Concentrations of the enantiomer, Experiments SGF (1) and SGF (2): 8.615 mg/mL
  Concentration of the enantiomer in SGF (1) Vessel: 8.443 mg/mL
  Concentration of the enantiomer in SGF (2) Vessel: 8.787 mg/mL
[5]; 11 minutes
  Average Concentrations of the enantiomer, Experiments SGF (1) and SGF (2): 8.938 mg/mL
  Concentration of the enantiomer in SGF (1) Vessel: 8.746 mg/mL
  Concentration of the enantiomer in SGF (2) Vessel: 9.131 mg/mL
[5]; 12 minutes
  Average Concentrations of the enantiomer, Experiments SGF (1) and SGF (2): 8.927 mg/mL
  Concentration of the enantiomer in SGF (1) Vessel: 8.767 mg/mL
  Concentration of the enantiomer in SGF (2) Vessel: 9.086 mg/mL
[5]; 14 minutes
  Average Concentrations of the enantiomer, Experiments SGF (1) and SGF (2): 9.164 mg/mL
  Concentration of the enantiomer in SGF (1) Vessel: 9.236 mg/mL
  Concentration of the enantiomer in SGF (2) Vessel: 9.092 mg/mL
[5]; 15 minutes
  Average Concentrations of the enantiomer, Experiments SGF (1) and SGF (2): 9.463 mg/mL
  Concentration of the enantiomer in SGF (1) Vessel: 9.510 mg/mL
  Concentration of the enantiomer in SGF (2) Vessel: 9.416 mg/mL
[5]; 17 minutes
  Average Concentrations of the enantiomer, Experiments SGF (1) and SGF (2): 9.438 mg/mL
  Concentration of the enantiomer in SGF (1) Vessel: 9.398 mg/mL
  Concentration of the enantiomer in SGF (2) Vessel: 9.477 mg/mL
[5]; 18 minutes
  Average Concentrations of the enantiomer, Experiments SGF (1) and SGF (2): 9.258 mg/mL
  Concentration of the enantiomer in SGF (1) Vessel: 9.127 mg/mL
  Concentration of the enantiomer in SGF (2) Vessel: 9.390 mg/mL
[5]; 20 minutes
  Average Concentrations of the enantiomer, Experiments SGF (1) and SGF (2): 9.475 mg/mL
  Concentration of the enantiomer in SGF (1) Vessel: 9.457 mg/mL
  Concentration of the enantiomer in SGF (2) Vessel: 9.493 mg/mL
[5]; 25 minutes
  Average Concentrations of the enantiomer, Experiments SGF (1) and SGF (2): 9.61 mg/mL
  Concentration of the enantiomer in SGF (1) Vessel: 9.579 mg/mL
  Concentration of the enantiomer in SGF (2) Vessel: 9.641 mg/mL
[5]; 30 minutes
  Average Concentrations of the enantiomer, Experiments SGF (1) and SGF (2): 9.65 mg/mL
  Concentration of the enantiomer in SGF (1) Vessel: 9.894 mg/mL
  Concentration of the enantiomer in SGF (2) Vessel: 9.406 mg/mL
[5]; 60 minutes
  Average Concentrations of the enantiomer, Experiments SGF (1) and SGF (2): 9.127 mg/mL
  Concentration of the enantiomer in SGF (1) Vessel: 9.530 mg/mL
  Concentration of the enantiomer in SGF (2) Vessel: 8.725 mg/mL
[5]; [6]
  Average Concentrations of the enantiomer, Experiments SGF (1) and SGF (2): 4.163 mg/mL
  Concentration of the enantiomer in SGF (1) Vessel: 3.624 mg/mL
  Concentration of the enantiomer in SGF (2) Vessel: 4.702 mg/mL
[5]; SGF pH 1.2, 60 minutes
  course of release from the capsule: leveled off after 11 minutes
[5]; SGF samples stored benchtop in a clear vial
  cause of decrease in concentration at approximately 72 hours: light degradation
Male beagle dogs; 70 kg individual
  human dose equivalent to dog MTD: about 3,000 mg
Male beagle dogs; non-naïve dogs
  MTD greater than for the S(−) enantiomer: about 10,000 fold
  NOAEL greater than for the S(−) enantiomer: approximately 20,000 fold
Male beagle dogs; [7]
  MTD: 75 mg/kg
  NOAEL: 25 mg/kg
Dopamine receptors
  less active as a dopamine agonist than the S(−) enantiomer: more than 5,000 fold
